Results: paper PMC4549624 (Scientific Reports, 2015)
Read-outs that look alike come from different tables or passages of the source.

What was measured:
KCNQ1 = settings: cited from earlier work
KCNE1-R32D (human) = KCNE1-R32D (human) (UniProt P15382)
KCNE1 (human) = KCNE1 (human) (UniProt P15382)

Compound: CCS(=O)(=O)N(C)[C@H]1c2cc(C#N)ccc2OC(C)(C)[C@@H]1O (racemic) [chromanol 293B]
- effect on KCNQ1 (KCNQ1): inhibit the channel

Compound: COc1ccc(-c2csc(NC(=O)[C@H]3CCCCN3S(=O)(=O)c3ccc(C)cc3)n2)cc1 [ML277]
- effect on KCNQ1 (KCNQ1; binds to side pocket in KCNQ1, especially KCNE1-free side pocket, in words): enhance the amplitude of the KCNQ1 current

Compound: O=C(Nc1cc(C(F)(F)F)ccc1O)Nc1cc(C(F)(F)F)ccc1O [NS1643]
- effect on KCNQ1 (KCNQ1; binds to KCNQ1, in words): enhance the channel conductance

Compound: SSD609 (peptide)
- current of KCNQ1/KCNE1-R32D left under SSD609 in transfected CHO cells, whole-cell patch clamp (KCNE1-R32D (human)): < 10%
- current of wild-type KCNQ1/KCNE1 left under SSD609 in transfected CHO cells, whole-cell patch clamp (reference of the R32D mutant) (KCNE1 (human)): 30%
